Measured values published in article PMC8208785, “Therapeutic efficacy of novel memantine nitrate MN‐08 in animal models of Alzheimer’s disease” (Aging Cell, 2021).

What was measured:
[1] = tested on: primary hippocampal neurons; experiment: intracellular Ca2+ by Fluo-4 confocal microscopy in primary hippocampal neurons; assay type: cell-based, rat; details: glutamate 100 µM
Procedure: Rat hippocampal neurons were obtained from 18-day-old Sprague-Dawley rat embryos as previously described with modifications (Subramaniam et al., 2005). The hippocampi were obtained and dissected on ice. Then, the hippocampi were digested with 0.25 % trypsin at 37°C for 15 min. The single neurons were mechanically dissociated by using a Pasteur pipette. The neurons were plated at a density of 2×10^5 cells/mL on 35-mm culture dishes, which were pre-coated with poly-L-lysine (10 μg/mL), in neurobasal eagle’s medium containing 10 % fetal bovine serum, 0.5 mM glutamine, 100 units/mL of penicillin, 100 μg/mL of streptomycin. […]
A confocal laser scanning microscope was used to evaluate relative changes in intracellular calcium concentrations [Ca^2+]i by monitoring Fluo-4 fluorescence after intracellular cleavage of superfused Fluo-4 acetoxymethylester (1 μM, with excitation at 488 nm and emission at 510 nm) (Bkaily, Al-Khoury, Simon, & Jacques, 2017). […] The fluorescence images were obtained by Leica TCS SPE Confocal Microscope and analyzed using the LAS AF software (Leica Microsystems Co., Wetzlar and Mannheim, Germany). The data were obtained by evaluating the fluorescence (F) from selected areas within a cell, following subtraction of background fluorescence, and division by the fluorescence intensity before drug application (F0), expressed as F/F0. […]

[2] = tested on: 3×Tg‐AD mice; experiment: Golgi staining of dendritic spines and Western blotting of synaptic markers in 3×Tg-AD mice; assay type: in vivo
Procedure: Triple transgenic 3×Tg‐AD mice were acquired from Jackson Laboratory and fostered in the Shenzhen Center for Disease Control and Prevention (Shenzhen, China). Eight‐month‐old 3×Tg‐AD mice were categorized into six groups: (1) 3×Tg‐AD +Vehicle group; (2) 3×Tg‐AD +MN‐08 (3 mg/kg) group; (3) 3×Tg‐AD +MN‐08 (6 mg/kg) group; (4) 3×Tg‐AD +MN‐08 (12 mg/kg) group; (5) 3×Tg‐AD +Memantine (Mem, 5 mg/kg) group; (6) 3×Tg‐AD +Donepezil (Done, 1.3 mg/kg, once daily) group; (7) Eight‐month‐old B6129SF2/J mice as a control group. MN‐08 and memantine were given twice daily (Done, once daily) by gastric gavage for 4 months from 8 months of age.
Golgi staining was used to determine hippocampal dendritic spine density by a Rapid Golgi Stain Kit (FD Neurotechnologies, Columbia, MD, USA) according to the manufacturer’s instructions. The brain was removed after the behavioral tests and incubated with impregnation solution in the dark at room temperature for 1 week. Impregnation solution was replaced with solution A and stored in the dark for 3 days. Brain sections (100 μm thickness) were placed on gelatin-coated microscope slides and then immersed in ddH2O. Solution B, Solution C, 80 % ethanol and xylene were used for 10 min, sequentially. The dendritic spines of hippocampal neurons were analyzed and counted in a blinded manner from six sections per animal by light microscopy (Olympus, Tokyo, Japan).
Western blotting analysis was performed as previously described with minor modifications (Huang, Li, & Nan, 2017). Proteins were extracted from hippocampal tissue and their concentrations determined by the BCA protein assay kit (Fdbio science, Hangzhou, China). The protein (20 μg) was separated on a 12% SDS-PAGE gel and then transferred to PVDF membranes. The membranes were blocked using 5 % nonfat dry milk for 2 h. […] Quantitative analysis of protein bands was conducted by the Carestream system (Carestream Health, Inc, USA).

| SMILES | intracellular Ca2+ influx caused by glutamate ([1]; MN‐08 30 µM) | reduction of dendritic spines (hippocampus CA1, Golgi staining) ([2]; MN‐08 6 mg/kg) | expression of synaptic markers (SYP, PSD95, SYN I, SYN II, NR2A) ([2]; MN‐08 6 mg/kg, Western blot) | intracellular Ca2+ influx caused by glutamate ([1]; memantine 10 µM) | reduction of dendritic spines (hippocampus CA1, Golgi staining) ([2]; memantine 5 mg/kg) |
| --- | --- | --- | --- | --- | --- |
| CCC12CC3CC(N)(C1)CC(CO[N+](=O)[O-])(C3)C2 (centres unmarked) [MN‐08] | inhibited | markedly reversed | significantly increased | – | – |
| CC12CC3CC(C)(C1)CC(N)(C3)C2 [memantine, 1‐amino‐3,5‐dimethyladamantane] | – | – | – | inhibited | markedly reversed |
